Where a name gives a salt, the structure may show the parent alone.
system: not given; settings: not given

melting point [°C] | SMILES
> 45 | Cc1ccccc1Cc1cc2cnc(NCCCN3CCN(C)CC3)nc2n(C2CCCC2)c1=O [Example 77, 8-Cyclopentyl-6-(2-methyl-benzyl)-2-[3-(4-methyl-piperazin-1-yl)-propylamino]-8H-pyrido[2,3-d]pyrimidin-7-one]
122 to 124 | CN(C)CCCCNc1ncc2cc(Cc3nccs3)c(=O)n(C3CCCC3)c2n1 [Example 90, 8-Cyclopentyl-2-(4-dimethylamino-butylamino)-6-thiazol-2-ylmethyl-8H-pyrido[2,3-d]pyrimidin-7-one]
210 | Cc1ccccc1Cc1cc2cnc(Nc3ccc(N4CCNCC4)cc3)nc2n(C2CCCC2)c1=O [Example 69, 8-Cyclopentyl-6-(2-methyl-benzyl)-2-(4-piperazin-1-yl-phenylamino)-8H-pyrido[2,3-d]pyrimidin-7-one]
105 to 107 | CN(C)CCCCNc1ncc2cc(Cc3ccccn3)c(=O)n(C3CCCC3)c2n1 [Example 89, 8-Cyclopentyl-2-(4-dimethylamino-butylamino)-6-pyridin-2-ylmethyl-8H-pyrido[2,3-d]pyrimidin-7-one]

The next lines start with the compound.

SMILES | melting point [°C]
O=c1c(Cc2ccccn2)cc2cnc(NC3CCNCC3)nc2n1C1CCCC1 (as salt: TFA) [Example 26, 8-Cyclopentyl-2-(piperidin-4-ylamino)-6-pyridin-2-ylmethyl-8H-pyrido[2,3-d]pyrimidin-7-one] | 138 to 140
CCCN1CCC(Nc2ncc3cc(Cc4ccccc4C)c(=O)n(C4CCCC4)c3n2)CC1 [Example 60, 8-Cyclopentyl-6-(2-methyl-benzyl)-2-(1-propyl-piperidin-4-ylamino)-8H-pyrido[2,3-d]pyrimidin-7-one] | 149 to 151
CCCN1CCC(Nc2ncc3cc(Cc4cccc(C)c4)c(=O)n(C4CCCC4)c3n2)CC1 [Example 61, 8-Cyclopentyl-6-(3-methyl-benzyl)-2-(1-propyl-piperidin-4-ylamino)-8H-pyrido[2,3-d]pyrimidin-7-one] | 118 to 120
Cc1c(Cc2ccccc2)c(=O)n(C2CCCC2)c2nc(Nc3ccc(N4CCNCC4)cc3)ncc12 [Example 29, 6-Benzyl-8-cyclopentyl-5-methyl-2-(4-piperazin-1-yl-phenylamino)-8H-pyrido[2,3-d]pyrimidin-7-one] | 114

system: neointima formation; settings: in rats; cited from earlier work

SMILES | inhibition of neointima formation
COc1ccc(CNc2nc(N(CCO)CCO)nc3c2ncn3C(C)C)cc1 [CVT-313] | greater than 80%

Source: patent US20060142312A1, “C6-aryl and heteroaryl substituted pyrido[2,3-D] pyrimidin-7-ones” (PFIZER INC, priority 2004, published 2006)
